Assays:
[1] = system: Tyrosine-protein kinase ABL1 (Homo sapiens), P00519 [H396P]; test: Inhibition of human truncated ABL H396P mutant expressed in baculovirus assessed as substrate phosphorylation using fluorescence-labelled peptides as substrate at 95 uM after 90 mins by microfluidic peptide phosphorylation assay
[2] = biological target: T1, Protein kinase C epsilon type (Homo sapiens) (UniProt Q02156); test: Inhibition of human truncated PKC epsilon expressed in baculovirus assessed as substrate phosphorylation using fluorescence-labelled peptides as substrate at 95 uM after 90 mins by microfluidic peptide phosphorylation assay
T1 sequence (whole entry): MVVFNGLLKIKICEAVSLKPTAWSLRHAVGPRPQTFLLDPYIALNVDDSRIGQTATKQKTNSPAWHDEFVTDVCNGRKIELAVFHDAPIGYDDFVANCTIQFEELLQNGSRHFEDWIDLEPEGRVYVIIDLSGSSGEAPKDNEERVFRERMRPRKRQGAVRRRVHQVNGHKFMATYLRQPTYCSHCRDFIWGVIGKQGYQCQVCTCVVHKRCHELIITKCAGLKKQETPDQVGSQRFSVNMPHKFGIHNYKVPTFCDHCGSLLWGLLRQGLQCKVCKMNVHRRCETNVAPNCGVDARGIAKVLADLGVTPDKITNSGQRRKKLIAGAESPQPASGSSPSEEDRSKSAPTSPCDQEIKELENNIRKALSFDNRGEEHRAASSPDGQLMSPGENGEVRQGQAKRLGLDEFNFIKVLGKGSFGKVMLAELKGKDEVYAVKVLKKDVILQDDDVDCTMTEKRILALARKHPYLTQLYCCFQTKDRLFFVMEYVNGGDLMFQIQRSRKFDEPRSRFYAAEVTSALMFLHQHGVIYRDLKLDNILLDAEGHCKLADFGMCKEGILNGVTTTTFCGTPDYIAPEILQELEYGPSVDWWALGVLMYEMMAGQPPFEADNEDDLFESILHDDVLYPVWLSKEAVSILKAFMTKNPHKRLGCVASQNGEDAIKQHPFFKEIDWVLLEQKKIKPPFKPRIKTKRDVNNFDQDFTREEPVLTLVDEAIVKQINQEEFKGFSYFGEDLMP

[3] = biological target: Tyrosine-protein kinase BTK (Homo sapiens) (UniProt Q06187); test: Inhibition of human full length BTK expressed in baculovirus assessed as substrate phosphorylation using fluorescence-labelled peptides as substrate at 8 uM after 90 mins by microfluidic peptide phosphorylation assay
Chain of Tyrosine-protein kinase BTK (Homo sapiens) (Q06187 whole entry, the tested form may be a part): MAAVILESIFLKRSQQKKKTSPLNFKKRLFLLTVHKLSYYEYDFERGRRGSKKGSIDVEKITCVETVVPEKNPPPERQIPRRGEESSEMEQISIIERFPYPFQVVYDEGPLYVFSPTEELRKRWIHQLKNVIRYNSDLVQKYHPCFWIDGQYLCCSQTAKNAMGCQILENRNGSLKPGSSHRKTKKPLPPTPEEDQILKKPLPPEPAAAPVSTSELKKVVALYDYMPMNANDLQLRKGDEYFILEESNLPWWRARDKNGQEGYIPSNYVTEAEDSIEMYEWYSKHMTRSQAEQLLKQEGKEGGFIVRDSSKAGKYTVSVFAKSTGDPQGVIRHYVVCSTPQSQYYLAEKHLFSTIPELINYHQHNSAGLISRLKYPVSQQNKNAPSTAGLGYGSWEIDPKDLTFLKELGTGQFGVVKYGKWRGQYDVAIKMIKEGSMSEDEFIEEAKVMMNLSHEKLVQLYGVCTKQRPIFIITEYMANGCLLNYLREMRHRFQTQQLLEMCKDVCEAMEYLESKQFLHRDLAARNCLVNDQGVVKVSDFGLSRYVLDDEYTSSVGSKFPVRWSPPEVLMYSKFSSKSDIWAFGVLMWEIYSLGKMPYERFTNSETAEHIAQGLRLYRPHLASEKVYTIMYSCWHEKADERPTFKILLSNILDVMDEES

[4] = system: T2, Receptor-type tyrosine-protein kinase FLT3 (Homo sapiens), P36888 [D835Y]; test: Inhibition of human FLT3 D835Y mutant catalytic domain expressed in baculovirus assessed as substrate phosphorylation using fluorescence-labelled peptides as substrate at 1000 uM after 90 mins by microfluidic peptide phosphorylation assay
T2 sequence (whole entry): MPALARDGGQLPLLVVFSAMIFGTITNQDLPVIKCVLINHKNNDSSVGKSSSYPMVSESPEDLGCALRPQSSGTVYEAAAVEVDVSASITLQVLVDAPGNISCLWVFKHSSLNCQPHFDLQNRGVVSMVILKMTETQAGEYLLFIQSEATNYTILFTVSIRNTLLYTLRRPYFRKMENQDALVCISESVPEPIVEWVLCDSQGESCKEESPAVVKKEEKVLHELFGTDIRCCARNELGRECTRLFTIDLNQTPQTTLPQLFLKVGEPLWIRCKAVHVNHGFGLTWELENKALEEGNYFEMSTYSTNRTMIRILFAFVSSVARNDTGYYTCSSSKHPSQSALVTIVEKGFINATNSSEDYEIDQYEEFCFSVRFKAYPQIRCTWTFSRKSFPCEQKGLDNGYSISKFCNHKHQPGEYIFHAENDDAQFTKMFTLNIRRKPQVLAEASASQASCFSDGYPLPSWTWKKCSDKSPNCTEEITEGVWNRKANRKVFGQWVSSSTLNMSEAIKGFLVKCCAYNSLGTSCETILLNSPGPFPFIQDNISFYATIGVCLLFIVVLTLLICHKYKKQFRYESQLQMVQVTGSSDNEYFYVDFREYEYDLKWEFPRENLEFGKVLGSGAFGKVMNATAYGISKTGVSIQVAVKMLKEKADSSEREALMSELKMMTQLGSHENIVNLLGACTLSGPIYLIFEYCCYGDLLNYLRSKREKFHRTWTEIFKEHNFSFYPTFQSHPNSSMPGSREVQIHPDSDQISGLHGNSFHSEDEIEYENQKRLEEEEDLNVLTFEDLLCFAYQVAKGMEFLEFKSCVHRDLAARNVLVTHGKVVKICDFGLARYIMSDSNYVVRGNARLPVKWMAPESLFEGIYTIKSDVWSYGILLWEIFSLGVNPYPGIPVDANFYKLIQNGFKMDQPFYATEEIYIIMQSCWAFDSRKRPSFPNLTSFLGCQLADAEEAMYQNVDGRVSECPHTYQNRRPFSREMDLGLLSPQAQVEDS

[5] = biological target: Epidermal growth factor receptor (Homo sapiens) (UniProt P00533); test: Inhibition of human EGFR catalytic domain expressed in baculovirus assessed as substrate phosphorylation using fluorescence-labelled peptides as substrate at 0.06 uM after 90 mins by microfluidic peptide phosphorylation assay
Chain of Epidermal growth factor receptor (Homo sapiens) (P00533 whole entry, the tested form may be a part): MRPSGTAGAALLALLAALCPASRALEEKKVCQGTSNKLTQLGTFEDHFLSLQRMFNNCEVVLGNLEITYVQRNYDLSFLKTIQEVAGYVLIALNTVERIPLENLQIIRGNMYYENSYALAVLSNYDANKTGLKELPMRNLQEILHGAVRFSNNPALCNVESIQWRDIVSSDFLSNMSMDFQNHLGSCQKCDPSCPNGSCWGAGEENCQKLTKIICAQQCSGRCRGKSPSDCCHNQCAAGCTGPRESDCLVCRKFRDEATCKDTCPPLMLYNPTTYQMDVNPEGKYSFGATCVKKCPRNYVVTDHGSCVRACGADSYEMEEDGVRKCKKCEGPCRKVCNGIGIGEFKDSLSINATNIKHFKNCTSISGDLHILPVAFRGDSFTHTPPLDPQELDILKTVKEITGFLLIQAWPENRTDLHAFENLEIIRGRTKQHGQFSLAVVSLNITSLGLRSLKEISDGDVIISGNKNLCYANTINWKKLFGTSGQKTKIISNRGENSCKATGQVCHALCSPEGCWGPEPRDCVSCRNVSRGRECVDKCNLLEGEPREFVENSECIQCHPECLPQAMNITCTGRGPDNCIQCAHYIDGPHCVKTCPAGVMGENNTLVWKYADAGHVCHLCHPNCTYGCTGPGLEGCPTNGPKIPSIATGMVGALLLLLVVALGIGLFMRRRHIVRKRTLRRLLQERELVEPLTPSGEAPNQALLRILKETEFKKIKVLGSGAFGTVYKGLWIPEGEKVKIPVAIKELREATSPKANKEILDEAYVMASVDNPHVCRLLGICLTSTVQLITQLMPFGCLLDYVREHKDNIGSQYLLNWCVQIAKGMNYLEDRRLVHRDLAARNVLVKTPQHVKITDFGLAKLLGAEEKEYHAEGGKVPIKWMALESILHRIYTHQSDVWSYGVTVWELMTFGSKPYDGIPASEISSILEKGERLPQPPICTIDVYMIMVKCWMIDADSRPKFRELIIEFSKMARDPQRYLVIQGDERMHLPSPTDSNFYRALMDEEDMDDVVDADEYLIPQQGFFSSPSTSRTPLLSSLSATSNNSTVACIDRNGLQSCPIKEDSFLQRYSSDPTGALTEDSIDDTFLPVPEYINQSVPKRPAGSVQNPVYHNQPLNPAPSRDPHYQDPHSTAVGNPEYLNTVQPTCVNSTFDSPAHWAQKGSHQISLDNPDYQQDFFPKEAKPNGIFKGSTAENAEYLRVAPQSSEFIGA

[6] = biological target: T3, Serine/threonine-protein kinase Sgk2 (Homo sapiens) (UniProt Q9HBY8); test: Inhibition of human full length SGK2 expressed in baculovirus assessed as substrate phosphorylation using fluorescence-labelled peptides as substrate at 420 uM after 90 mins by microfluidic peptide phosphorylation assay
T3 sequence (whole entry): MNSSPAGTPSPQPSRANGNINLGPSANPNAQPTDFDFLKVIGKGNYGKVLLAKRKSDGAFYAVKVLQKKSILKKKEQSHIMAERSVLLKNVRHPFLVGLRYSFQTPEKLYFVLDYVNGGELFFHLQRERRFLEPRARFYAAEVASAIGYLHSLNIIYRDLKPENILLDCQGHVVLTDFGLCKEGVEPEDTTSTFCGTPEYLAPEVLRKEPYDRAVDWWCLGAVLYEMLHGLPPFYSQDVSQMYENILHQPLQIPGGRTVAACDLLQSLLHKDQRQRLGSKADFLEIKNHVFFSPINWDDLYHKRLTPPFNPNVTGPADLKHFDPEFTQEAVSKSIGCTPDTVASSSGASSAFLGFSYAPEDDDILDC

[7] = biological target: Mitogen-activated protein kinase 3 (Homo sapiens) (UniProt P27361); test: Inhibition of human full length ERK1 expressed in Escherichia coli cell assessed as substrate phosphorylation using fluorescence-labelled peptides as substrate at 9 uM after 90 mins by microfluidic peptide phosphorylation assay
Chain of Mitogen-activated protein kinase 3 (Homo sapiens) (P27361 whole entry): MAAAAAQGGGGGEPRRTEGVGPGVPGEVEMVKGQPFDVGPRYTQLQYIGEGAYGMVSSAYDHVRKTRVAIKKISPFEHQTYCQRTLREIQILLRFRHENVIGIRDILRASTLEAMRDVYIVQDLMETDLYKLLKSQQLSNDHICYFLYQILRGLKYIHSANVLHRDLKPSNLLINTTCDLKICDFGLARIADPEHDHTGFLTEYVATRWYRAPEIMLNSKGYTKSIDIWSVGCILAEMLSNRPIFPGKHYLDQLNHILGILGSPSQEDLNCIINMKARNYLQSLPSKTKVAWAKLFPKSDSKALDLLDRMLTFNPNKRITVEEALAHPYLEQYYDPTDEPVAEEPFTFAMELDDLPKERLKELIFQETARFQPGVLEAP

[8] = biological target: Mitogen-activated protein kinase 1 (Homo sapiens) (UniProt P28482); test: Inhibition of human full length ERK2 expressed in Escherichia coli cell assessed as substrate phosphorylation using fluorescence-labelled peptides as substrate at 9 uM after 90 mins by microfluidic peptide phosphorylation assay
Chain of Mitogen-activated protein kinase 1 (Homo sapiens) (P28482 whole entry): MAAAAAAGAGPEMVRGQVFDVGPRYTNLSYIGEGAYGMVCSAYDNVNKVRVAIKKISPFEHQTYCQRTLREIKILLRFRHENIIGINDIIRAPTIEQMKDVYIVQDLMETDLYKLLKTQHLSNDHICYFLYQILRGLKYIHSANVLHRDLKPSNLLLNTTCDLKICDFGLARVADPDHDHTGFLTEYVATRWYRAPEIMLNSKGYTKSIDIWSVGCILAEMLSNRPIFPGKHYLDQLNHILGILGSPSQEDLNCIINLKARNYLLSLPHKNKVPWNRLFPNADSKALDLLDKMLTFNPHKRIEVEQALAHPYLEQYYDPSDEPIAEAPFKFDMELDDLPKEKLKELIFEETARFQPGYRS

[9] = biological target: Tyrosine-protein kinase Lck (Homo sapiens) (UniProt P06239); test: Inhibition of human full length LCK expressed in baculovirus assessed as substrate phosphorylation using fluorescence-labelled peptides as substrate at 9 uM after 90 mins by microfluidic peptide phosphorylation assay
Chain of Tyrosine-protein kinase Lck (Homo sapiens) (P06239 2-509 limits assumed): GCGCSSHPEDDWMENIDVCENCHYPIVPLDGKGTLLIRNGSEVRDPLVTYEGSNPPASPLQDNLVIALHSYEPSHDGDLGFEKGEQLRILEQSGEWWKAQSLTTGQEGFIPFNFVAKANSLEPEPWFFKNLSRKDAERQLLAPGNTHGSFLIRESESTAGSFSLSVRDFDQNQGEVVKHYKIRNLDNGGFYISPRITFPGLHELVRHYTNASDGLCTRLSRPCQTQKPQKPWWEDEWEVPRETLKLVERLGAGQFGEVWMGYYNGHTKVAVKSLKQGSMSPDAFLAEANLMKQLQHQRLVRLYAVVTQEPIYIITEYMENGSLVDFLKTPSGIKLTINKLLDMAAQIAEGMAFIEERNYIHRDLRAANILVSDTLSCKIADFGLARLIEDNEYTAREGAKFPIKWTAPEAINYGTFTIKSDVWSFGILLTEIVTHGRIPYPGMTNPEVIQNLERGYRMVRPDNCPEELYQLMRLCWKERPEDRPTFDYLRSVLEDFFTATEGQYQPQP

Structure (SMILES): NCCc1ccc(-c2ncnc3[nH]cnc23)cc1
- inhibition [1]: 69.5%
- inhibition [2]: 49%

Structure (SMILES): NCC1CCN(c2ncnc3[nH]ccc23)CC1
- inhibition [3]: 4.5%

Structure (SMILES): c1cnc2[nH]ccc2c1
- inhibition [4]: 76%

Structure (SMILES): NC1(Cc2ccc(Cl)cc2)CCN(c2ncnc3[nH]ccc23)CC1
- inhibition [5]: 0%

Structure (SMILES): c1nc(N2CCOCC2)c2nc[nH]c2n1
- inhibition [6]: 76.5%

Structure (SMILES): NCC1CN(c2ncnc3[nH]c4cnccc4c23)CCO1 (centres undefined)
- inhibition [7]: 8.5%
- inhibition [8]: 1.5%
- inhibition [9]: 39%

From ChEMBL document CHEMBL3132769, “Fragment growing to retain or alter the selectivity of anchored kinase hinge-binding fragments” (Medchemcomm, 2014)
